Assay results as given in publication PMC11148373, “Cubeb (Piper cubeba L.): nutritional value, phytochemical profiling and dermacosmeceutical properties” (Frontiers in Nutrition, 2024).

Target: T1, elastase from porcine pancreas (Sus scrofa, UniProt P00772)
T1 construct: gene CELA1; commercial native porcine pancreatic elastase (Sigma Aldrich)
Experiment: N-Succinyl-Ala-Ala-Ala-p-nitroanilide hydrolysis, absorbance at […] nm
Type: biochemical
Conditions: read-out: IC50 (μg/mL) / Elastase (converted)

T1 sequence (P00772 27-266): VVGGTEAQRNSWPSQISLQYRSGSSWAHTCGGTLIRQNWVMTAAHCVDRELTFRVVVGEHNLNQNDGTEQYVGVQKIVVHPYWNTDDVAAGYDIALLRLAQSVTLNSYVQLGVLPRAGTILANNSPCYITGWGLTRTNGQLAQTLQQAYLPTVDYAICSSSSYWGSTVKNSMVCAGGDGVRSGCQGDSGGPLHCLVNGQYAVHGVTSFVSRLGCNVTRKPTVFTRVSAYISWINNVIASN

- IC50: 505 µM
SMILES: O=C(O[C@@H]1Cc2c(O)cc(O)cc2O[C@@H]1c1cc(O)c(O)c(O)c1)c1cc(O)c(O)c(O)c1 [Epigallocatechin gallate]
